Assay [1] has as its system platelet-poor plasma (PPP). Briefly: In vitro aPTT clotting time in platelet-poor plasma. Set-up: species or system human. On the procedure: (§1) Figure 2 Effects of CSL on clotting time. (A) Platelet-poor plasma (PPP) was incubated with the indicated concentrations of CSL or rivaroxaban (Riva) for 15 min. (B) One hour after administering DMSO, CSL, or Riva, blood was collected from the mice, and PPP was obtained. Then, in vitro aPTT (A) or ex vivo aPTT was measured, as described in the Methods sections. Data are shown as mean values ± SD of five independent experiments. * p < 0.05 vs. D. D = 0.2% DMSO, used as the vehicle control.
Ten fasting healthy volunteers (aged 24–28; six women and four men) who were free of allergies, cardiovascular problems, carbohydrate, or lipid metabolic abnormalities and had not taken any morning medication had their blood samples taken. None of our subjects used addictive drugs or antioxidant food supplements, and their diets were well balanced. The plasma from the blood samples was immediately spun down (1300× g for 15 min) to separate it from sodium citrate (10.9 mM) and pooled for the following investigations. Next, human blood samples were spun down at room temperature to rapidly separate the PRP. The PRP concentration was adjusted to 1 × 10^9 platelets/mL using a hemocytometer. After being rinsed once in HEPES buffer containing 1 mM CaCl2, the PRP pellet was maintained at room temperature for an additional 30 min. Then, 10 mL of the platelet samples were utilized to measure each clotting time point. The IRB of Kyungpook National University Hospital (Daegu, Republic of Korea) approved this study protocol (KNUH 2012-01-010).
Plasma was taken by centrifuging blood (2000× g for 10 min) at room temperature following dimethyl sulfoxide (DMSO) or CSL administration for 1 h to assess PT and aPTT using a thrombotimer (Behnk Elektronik, Norderstedt, Germany). Micronized silica was utilized as an activator for the aPTT test. Briefly, 100 μL of platelet-poor plasma (PPP) and 100 μL of aPTT assay reagent were combined for 1 min at 37 °C, 100 µL of CaCl2 (20 mM) was added, and the clotting times were noted. […] Next, the clotting time was measured.

The subject of assay [2] is platelet-poor plasma (PPP). As to the kind of experiment: Ex vivo aPTT clotting time after intravenous injection. To be noted: mice. Format: in vivo, mouse. As to the method:
(§2) First, the potential cytotoxicity of […] on HUVECs was assessed using the 3-(4,5-dimethylthiazol-2-yl)-2,5-diphenyltetrazolium bromide (MTT) assay. […] The activated partial thromboplastin time (aPTT) and prothrombin time (PT), two coagulation parameters altered by CSL in vitro, were assessed first. We used the direct FXa inhibitor rivaroxaban as a positive control for our experiments. […] In the aPTT experiments, rivaroxaban at 8.38 μM and CSL at 7.23 μM, respectively, doubled the clotting time. Each mouse group (n = 5) received intravenous injections of CSL for 4 consecutive days to validate the in vitro results in an ex vivo experiment. […] In the ex vivo aPTT assays, treatment with CSL at 0.25 mg/kg and rivaroxaban at 0.29 mg/kg, respectively, doubled the clotting time. The average blood volume was determined to be 2 mL based on an estimated circulating blood volume for mice of 72 mL/kg and an average weight of 27 g for each animal used in this investigation. As a result, the estimated concentration of CSL in the peripheral blood after each injection ([…]) was 2.5, 5, 10, or 20 μM, respectively.
as §1
Male C57BL/6 mice aged 7 weeks (mean weight: 27 g) were purchased from Orient Bio Co., in Sungnam, Republic of Korea, and were subjected to a 12-day acclimatization phase. […]
(§3) Plasma was taken by centrifuging blood (2000× g for 10 min) at room temperature following dimethyl sulfoxide (DMSO) or CSL administration for 1 h to assess PT and aPTT using a thrombotimer (Behnk Elektronik, Norderstedt, Germany). […] Next, the clotting time was measured.

Assay [3] relates to platelet-poor plasma (PPP). Briefly: Prothrombin time (PT) after administration to mice. The settings on record: administered to mice; data not shown. The format is in vivo, mouse. On the procedure:
as §2, §3

The target in the next assay is Trypsin. As to the kind of experiment: Inhibitory constant, chromogenic substrate assay. Format: biochemical, human. On the procedure: Ki values were calculated based on chromogenic substrate experiments. CSL was employed in each assay at a minimum of seven concentrations in duplicate to obtain an inhibition curve. A total of 50 μL of substrate was combined with 25 μL of each chemical solution, inhibitor solution, or blank buffer. Before the plate was allocated into the Labsystems IEMS microtiter plate reader (Cergy Pontoise, France), 25 μL of the enzyme solution was mixed. The plate was allowed for 1 h at 37 °C before analysis. We continuously observed the formation of p-nitroaniline produced when the substrate was hydrolyzed using spectrophotometry at 405 nm. The maximum initial reaction rates were computed as the millioptical density per minute. A Dixon plot of 1/Vmax versus inhibitor concentration was used to fit the curve and determine the Ki values.

The test system of another assay is PRP. Briefly: FXa-induced platelet aggregation. The format is cell-based, human. To be noted: FXa 52 µg/mL; PRP preincubated 5 min. On the procedure:
Figure 5 Effects of CSL on the catalytic activity and production of FXa. […] Plots show the average values of five independent measurements. (B) HUVECs pre-incubated with the indicated concentrations of CSL for 10 min were stimulated with TNF-α (10 ng/mL) for 6 h and incubated with FX (175 nM) and FVIIa (10 nM) with/without anti-tissue factor antibody (25 µg/mL). The production of FXa was characterized as described in the Methods section. (C) PRP was preincubated for 5 min with different concentrations of CSL, Riva, or the vehicle. Platelet aggregation was initiated with FXa (52 µg/mL), and the platelet aggregation was recorded using an aggregometer. Data are shown as mean values ± SD of five independent experiments. * p < 0.05 vs. TNF-α alone (B) or FXa (C). D = 0.2% DMSO, used as the vehicle control.
CSL dissolved in DMSO was incubated with human PRP for a specified time (1, 3, 5, or 10 min). Next, PRP was activated by the addition of collagen (1 μg/mL), ADP (10 μM), U46619 (6 μM), or thrombin (3 U/mL), and the amount of platelet aggregation was measured using an aggregometer (Chronolog, Havertown, PA, USA).

A word on the Ki: it is the equilibrium dissociation constant of an inhibitor or competing ligand from its target. A high value points to lower affinity.

As for `COc1cc(-c2cc(=O)c3c(O)c(OC)c(OC)cc3o2)ccc1O` [CSL, 4,5-dihydroxy-3,6,7-trimethoxyflavone], the “concentration that doubled the clotting time (in vitro aPTT)” value in assay [1] (PPP incubated 15 min) stood at 7.23 µM. In addition, in assay [1] (doses between 5 and 20 M), the aPTT in vitro result was “considerably slowed the aPTT”. The “dose that doubled the clotting time (ex vivo aPTT)” value in assay [2] (intravenous) turned out to be 0.25 mg/kg. Further, the “blood clotting time ex vivo (aPTT)” value in assay [2] (intravenous injections for 4 consecutive days) is reported as “dramatically increased blood clotting time”. The PT entry in assay [3] is “did not change”. Besides, at Trypsin, the inhibitory constant (Ki) was > 300 µM and the “Ratio = Ki enzyme/Ki Factor Xa” value is recorded as >100. Besides, the “platelet aggregation brought on by FXa” value with PRP is listed as “dramatically reduced”.
